Measurements taken from patent US6277831A, “1,4-benzothiazepine-1,1-dioxide derivatives substituted by sugar residues, process for their preparation, pharmaceuticals comprising these compounds, and their use” (Aventis Pharma Deutschland GmbH, priority 1999, dated 2001).

What follows are molecules tested on bile acid transport in the ileum (assay: Ileum perfusion test: inhibition of bile acid (3H-taurocholic acid) transport in the ileum of anesthetized rats). Settings: rat ileum perfusion; 3 mM taurocholic acid, pH 7.4, 37° C.; 3H-TCA in bile at 80-90 min vs 30-40 min; diastereomeric mixtures unless indicated otherwise.
Type: in vivo, Male Wistar rats
Procedure: The biological testing of compounds according to the invention was carried out by means of a perfusion test. This test investigates the action of the compounds on the bile acid transport in the ileum. The diastereomeric mixtures of the compounds were tested unless indicated otherwise.
The Perfusion Test was Carried Out as Described Below:
Male Wistar rats (weight range 250-350 g) were anesthetized with urethane (1.5 g/kg i.p.) and the bile duct was cannulated with a polyethylene tube. Eight centimeters proximal to the ileocecal flap, an incision was made into the ileum and a silicone adapter for tubes was sewn in. A second incision with implantation of a corresponding silicone adapter was made in the cecum. Silicone tubes were attached to the adapter in order to perfuse the ileum in an orthograde and open manner (nonrecirculating) with perfusion buffer at a perfusion rate of 1 ml/min.
The perfusion tubes were filled with perfusion buffer (137 mM NaCl, 0.9 mM CaCl2, 0.51 mM MgCl2, 8.1 mM Na2 HPO4, 2.7 mM KCl, 1.47 mM KH2 PO4) (pH 7.4), 1% (v/v) ethanol, and 1% DMSO. The perfusion buffer contained the test compounds in concentrations as indicated, or the vehicle alone. The buffer was preheated to 37° C. The perfusion buffer contained 3 mM taurocholic acid (TCA), which in turn was labeled with 1000 dpm/μl of ^3 H TCA as a marker.
Study Design and Evaluation of the Results
An experimental batch was chosen which allowed the determination of the inhibition of bile acid transport in the individual animal. The bile was collected at 10 min intervals over a period of 90 min (in the case of a following wash-out phase for testing the reversibility over a period of up to 160 min). The perfusion of the vehicle-containing buffer solution over a period of 40 min (pre-test substance) was followed by a perfusion with perfusion buffer which contained the test compound in the concentration to be tested (to 90 min).
For the calculation of the percentage inhibition by the test compound, the dpms (disintegrations per min of ^3 H-TCA) in the bile from 80-90 min (end of the perfusion with the test substance) were related to the collection period 30-40 min during the preliminary phase, when the excretion of the ^3 H-TCA in the control phase had reached its maximum and plateau. The EC50 (=effective concentration 50) was calculated as the effective concentration between the inhibitory values of different concentrations which inhibited the maximum bile acid excretion by 50%.

SMILES | EC50 [nM]
CCCC[C@]1(CC)CS(=O)(=O)c2cc(OC)c(OC)cc2[C@@H](c2ccccc2)N1 [Comparison Example 8, reference compound] | 9800
CCCCC1(CC)CS(=O)(=O)c2ccc(N(C)C)cc2C(c2cccc(NC(=O)[C@H](O)[C@@H](O)[C@H](O)[C@H](O)CO)c2)N1 (some centres unmarked) [Example 1] | 90
CCCCC1(CC)CS(=O)(=O)c2ccc(N(C)C)cc2C(c2cccc(NC(=O)[C@H](O)[C@@H](O)[C@H](O)[C@H](O)CO)c2)N1O (some centres unmarked) [Example 2] | 150
CCCCC1(CC)CS(=O)(=O)c2ccc(N(C)C)cc2C(c2cccc(NC(=O)CCCCNC[C@H](O)[C@@H](O)[C@H](O)[C@H](O)CO)c2)N1 (some centres unmarked) [Example 3] | 220
CCCCC1(CCCC)CS(=O)(=O)c2ccc(N(C)C)cc2C(c2cccc(NC(=O)[C@H](O)[C@@H](O)[C@H](O)[C@H](O)CO)c2)N1 (some centres unmarked) [Example 5] | 400

The remaining molecules from weak to strong by EC50, led by results:

EC50 [nM] | SMILES
1400 | CCCCC1(CCCC)CS(=O)(=O)c2ccc(N(C)C)cc2C(c2cccc(NC(=O)CCCCNC[C@H](O)[C@@H](O)[C@H](O)[C@H](O)CO)c2)N1 (some centres unmarked) [Example 7]
720 | CCCCC1(CC)CS(=O)(=O)c2ccc(N(C)C)cc2C(c2cccc(NC(=O)CCCCCCCCCCNC(=O)[C@H](O)[C@@H](O)[C@H](O)[C@H](O)CO)c2)N1 (some centres unmarked) [Example 4]
90 | CCCCC1(CCCC)CS(=O)(=O)c2ccc(N(C)C)cc2C(c2cccc(NC(=O)[C@H](O)[C@@H](O)[C@H](O)[C@H](O)CO)c2)N1O (some centres unmarked) [Example 6]
